Test results reported in US20210009564A1, “CALPAIN MODULATORS AND THERAPEUTIC USES THEREOF” (BLADE THERAPERTICS, INC., priority 2018, published 2021).

Legend:
[1] = tested on: Calpain activity in SH-SY5Y cells; assay: SH-SY5Y Suc-LLVY-AMC fluorescence assay; assay type: cell-based; conditions: SH-SY5Y cells, 100 uM Suc-LLVY-AMC, read-out: SH-SY5Y + AMC IC50
Human Calpain 1/NS1 = molecular target: T1, Human Calpain 1/NS1 (Homo sapiens, UniProt P07384); assay: Calpain inhibition, continuous fluorescence (FRET substrate) assay, calpain 1; assay type: biochemical; conditions: SensoLyte 520 FRET substrate, 25C
T1 sequence (P07384 1-714): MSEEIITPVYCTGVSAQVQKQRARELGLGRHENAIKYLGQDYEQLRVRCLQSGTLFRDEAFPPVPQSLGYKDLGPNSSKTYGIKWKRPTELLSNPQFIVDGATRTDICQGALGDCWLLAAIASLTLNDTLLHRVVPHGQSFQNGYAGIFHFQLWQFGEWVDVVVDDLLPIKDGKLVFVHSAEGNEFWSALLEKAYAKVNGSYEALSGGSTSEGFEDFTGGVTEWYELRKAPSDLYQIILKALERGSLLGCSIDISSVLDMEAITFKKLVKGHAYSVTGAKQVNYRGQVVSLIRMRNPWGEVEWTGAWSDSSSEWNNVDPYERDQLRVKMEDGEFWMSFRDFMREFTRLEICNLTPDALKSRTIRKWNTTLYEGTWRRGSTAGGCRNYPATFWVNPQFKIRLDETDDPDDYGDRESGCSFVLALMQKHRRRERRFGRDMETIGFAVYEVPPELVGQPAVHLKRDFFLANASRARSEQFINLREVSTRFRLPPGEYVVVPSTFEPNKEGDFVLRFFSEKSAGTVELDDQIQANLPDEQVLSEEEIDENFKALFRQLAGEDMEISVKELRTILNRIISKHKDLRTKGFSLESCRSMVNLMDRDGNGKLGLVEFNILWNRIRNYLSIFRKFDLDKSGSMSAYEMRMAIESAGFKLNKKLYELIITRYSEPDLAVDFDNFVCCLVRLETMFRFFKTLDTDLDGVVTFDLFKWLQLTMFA
T1 sequence (P04632 1-268 partner): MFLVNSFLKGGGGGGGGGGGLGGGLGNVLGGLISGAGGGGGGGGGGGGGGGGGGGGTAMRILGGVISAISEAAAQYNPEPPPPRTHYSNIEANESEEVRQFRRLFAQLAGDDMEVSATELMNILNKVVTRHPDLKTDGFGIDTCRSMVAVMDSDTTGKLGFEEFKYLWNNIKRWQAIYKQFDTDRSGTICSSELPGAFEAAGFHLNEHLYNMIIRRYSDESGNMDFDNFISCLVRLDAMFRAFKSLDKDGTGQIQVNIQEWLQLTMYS
How it was run: (§1)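 Continuous FRET read-out (ex 490/em 520 nm) of 5-FAM/QXL 520 substrate cleavage, started by adding substrate with CaCl2 for in-situ activation after enzyme–inhibitor preincubation at 25 °C. Buffer was Tris 50 mM pH 7.5, NaCl 100 mM, DTT 1 mM. IC50 fitted (4-parameter) from rates over 1-5 min.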

Human Calpain 2/NS1 = molecular target: T2, Human Calpain 2/NS1 (Homo sapiens, UniProt P17655); assay: Calpain inhibition, continuous fluorescence (FRET substrate) assay, calpain 2; assay type: biochemical; conditions: SensoLyte 520 FRET substrate, 25C
T2 sequence (P17655 1-700): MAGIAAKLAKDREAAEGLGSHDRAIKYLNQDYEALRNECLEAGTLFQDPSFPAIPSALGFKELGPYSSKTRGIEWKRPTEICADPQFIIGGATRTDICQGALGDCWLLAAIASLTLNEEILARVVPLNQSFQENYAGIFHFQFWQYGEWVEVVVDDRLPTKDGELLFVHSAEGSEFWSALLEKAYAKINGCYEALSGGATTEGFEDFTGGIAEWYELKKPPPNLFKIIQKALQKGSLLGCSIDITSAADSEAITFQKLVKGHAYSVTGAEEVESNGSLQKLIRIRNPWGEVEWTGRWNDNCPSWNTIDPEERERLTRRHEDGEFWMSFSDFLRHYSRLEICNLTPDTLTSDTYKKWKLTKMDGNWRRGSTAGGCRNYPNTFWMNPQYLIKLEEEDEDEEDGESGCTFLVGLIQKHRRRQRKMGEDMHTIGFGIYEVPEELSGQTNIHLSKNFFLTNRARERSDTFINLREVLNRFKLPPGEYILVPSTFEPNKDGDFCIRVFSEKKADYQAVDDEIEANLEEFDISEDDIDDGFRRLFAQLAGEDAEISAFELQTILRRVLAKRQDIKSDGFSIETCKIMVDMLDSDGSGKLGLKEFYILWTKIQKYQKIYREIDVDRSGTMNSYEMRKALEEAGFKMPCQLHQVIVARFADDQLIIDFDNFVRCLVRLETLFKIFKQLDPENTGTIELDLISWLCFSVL
T2 sequence (P04632 1-268 partner): T1 sequence (P04632 1-268 partner)
How it was run: as §1

Human Calpain 9/NS1 = molecular target: T3, Human Calpain 9/NS1 (Homo sapiens, UniProt O14815); assay: Calpain inhibition, continuous fluorescence (FRET substrate) assay, calpain 9; assay type: biochemical; conditions: SensoLyte 520 FRET substrate, 25C
T3 sequence (O14815 1-690): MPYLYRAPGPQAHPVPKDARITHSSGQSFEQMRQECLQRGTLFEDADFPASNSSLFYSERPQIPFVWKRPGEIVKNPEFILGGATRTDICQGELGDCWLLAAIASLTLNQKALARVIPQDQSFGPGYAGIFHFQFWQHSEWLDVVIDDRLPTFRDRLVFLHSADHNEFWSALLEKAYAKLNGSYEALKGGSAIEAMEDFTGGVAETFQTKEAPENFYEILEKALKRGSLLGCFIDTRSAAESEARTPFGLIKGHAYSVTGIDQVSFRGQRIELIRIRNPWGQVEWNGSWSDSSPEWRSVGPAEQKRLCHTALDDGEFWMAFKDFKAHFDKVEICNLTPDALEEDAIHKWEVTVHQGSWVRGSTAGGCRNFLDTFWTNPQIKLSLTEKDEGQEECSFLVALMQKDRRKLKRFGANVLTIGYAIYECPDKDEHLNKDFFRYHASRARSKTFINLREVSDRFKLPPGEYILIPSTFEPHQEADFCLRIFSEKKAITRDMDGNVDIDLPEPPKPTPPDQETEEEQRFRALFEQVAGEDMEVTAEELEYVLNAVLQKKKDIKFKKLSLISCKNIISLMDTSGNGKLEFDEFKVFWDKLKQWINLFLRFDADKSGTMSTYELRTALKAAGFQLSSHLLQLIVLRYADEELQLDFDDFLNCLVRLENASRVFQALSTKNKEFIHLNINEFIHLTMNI
T3 sequence (P04632 1-268 partner): T1 sequence (P04632 1-268 partner)
How it was run: as §1

[2] = tested on: Calpain activity in SH-SY5Y cells; assay: SH-SY5Y spectrin breakdown product (SBDP-150) western blot assay; assay type: cell-based; conditions: SH-SY5Y cells, 25 uM A23187, SBDP-150 western blot, read-out: SH-SY5Y Spectrin IC50

Structure (SMILES) | IC50 ([1]; Homo sapiens) | IC50 (Human Calpain 1/NS1) | IC50 (Human Calpain 2/NS1) | IC50 (Human Calpain 9/NS1) | IC50 ([2]; Homo sapiens) | IC50 [1] | IC50 [2]
O=C(NC(Cc1ccccc1)C(=O)c1nc2ccccc2o1)c1nsnc1-c1ccccc1 (stereo not drawn) [Compound 86, N-(1-(BENZO[d]OXAZOL-2-YL)-1-OXO-3-PHENYLPROPAN-2-YL)-4-PHENYL-1,2,5-THIADIAZOLE-3-CARBOXAMIDE] | > 25 µM | > 10 µM | > 10 µM | > 10 µM | > 25 µM | – | –
O=C(NC(Cc1ccccc1)C(=O)c1nnn[nH]1)c1nsnc1-c1ccccc1 (stereo not drawn) [Compound 93, N-(1-OXO-3-PHENYL-1-(1H-TETRAZOL-5-YL)PROPAN-2-YL)-4-PHENYL-1,2,5-THIADIAZOLE-3-CARBOXAMIDE] | > 25 µM | > 10 µM | > 10 µM | > 10 µM | > 25 µM | – | –
NC(=O)C(=O)C(Cc1ccccc1)NC(=O)c1oc(C(F)F)nc1-c1cccc2cn[nH]c12 (stereo not drawn) [Compound 94, N-(4-AMINO-3,4-DIOXO-1-PHENYLBUTAN-2-YL)-2-(DIFLUOROMETHYL)-4-(1H-INDAZOL-7-YL)OXAZOLE-5-CARBOXAMIDE] | – | < 3 µM | < 3 µM | < 3 µM | – | < 10 µM | < 10 µM
Cn1cc(C(=O)NC(Cc2ccc(C(F)(F)F)cc2)C(=O)C(N)=O)c(-c2ccccc2F)n1 (stereo not drawn) [Compound 95, N-(4-AMINO-3,4-DIOXO-1-(4-(TRIFLUOROMETHYL)PHENYL)BUTAN-2-YL)-3-(2-FLUOROPHENYL)-1-METHYL-1H-PYRAZOLE-4-CARBOXAMIDE] | > 25 µM | < 3 µM | < 3 µM | < 3 µM | 10 to 25 µM | – | –
Cn1cc(C(=O)NC(Cc2ccc(Cl)cc2)C(=O)C(N)=O)c(-c2ccccc2F)n1 (stereo not drawn) [Compound 97, N-(4-AMINO-1-(4-CHLOROPHENYL)-3,4-DIOXOBUTAN-2-YL)-3-(2-FLUOROPHENYL)-1-METHYL-1H-PYRAZOLE-4-CARBOXAMIDE] | < 10 µM | < 3 µM | < 3 µM | < 3 µM | < 10 µM | – | –
CC(C)n1ncc2c(-c3nn(C)cc3C(=O)NC(Cc3ccccc3)C(=O)C(N)=O)cccc21 (stereo not drawn) [Compound 100, N-(4-AMINO-3,4-DIOXO-1-PHENYLBUTAN-2-YL)-3-(1-ISOPROPYL-1H-INDAZOL-4-YL)-1-METHYL-1H-PYRAZOLE-4-CARBOXAMIDE] | 10 to 25 µM | < 3 µM | < 3 µM | < 3 µM | 10 to 25 µM | – | –

Continued, in another order:

IC50 ([1]; Homo sapiens) | IC50 (Human Calpain 1/NS1) | IC50 (Human Calpain 2/NS1) | IC50 (Human Calpain 9/NS1) | IC50 ([2]; Homo sapiens) | Structure (SMILES) | IC50 [1] | IC50 [2]
< 10 µM | < 3 µM | < 3 µM | < 3 µM | 10 to 25 µM | Cc1nc(-c2ccccc2F)c(C(=O)NC(Cc2cccc(F)c2)C(=O)C(N)=O)o1 (stereo not drawn) [Compound 87, N-(4-AMINO-1-(3-FLUOROPHENYL)-3,4-DIOXOBUTAN-2-YL)-4-(2-FLUOROPHENYL)-2-METHYLOXAZOLE-5-CARBOXAMIDE] | – | –
< 10 µM | < 3 µM | < 3 µM | < 3 µM | > 25 µM | Cc1nc(-c2cccc3sccc23)c(C(=O)NC(Cc2ccccc2)C(=O)C(N)=O)o1 (stereo not drawn) [Compound 88, N-(4-AMINO-3,4-DIOXO-1-PHENYLBUTAN-2-YL)-4-(BENZO[b]THIOPHEN-4-YL)-2-METHYLOXAZOLE-5-CARBOXAMIDE] | – | –
< 10 µM | < 3 µM | < 3 µM | < 3 µM | < 10 µM | Cc1nc(-c2ccccc2F)c(C(=O)NC(Cc2cccc(Cl)c2)C(=O)C(N)=O)o1 (stereo not drawn) [Compound 89, N-(4-AMINO-1-(3-CHLOROPHENYL)-3,4-DIOXOBUTAN-2-YL)-4-(2-FLUOROPHENYL)-2-METHYLOXAZOLE-5-CARBOXAMIDE] | – | –
< 10 µM | < 3 µM | < 3 µM | < 3 µM | 10 to 25 µM | Cc1nc(-c2ccoc2Cl)c(C(=O)NC(Cc2ccccc2)C(=O)C(N)=O)o1 (stereo not drawn) [Compound 90, N-(4-AMINO-3,4-DIOXO-1-PHENYLBUTAN-2-YL)-4-(2-CHLOROFURAN-3-YL)-2-METHYLOXAZOLE-5-CARBOXAMIDE] | – | –
< 10 µM | < 3 µM | < 3 µM | < 3 µM | < 10 µM | Cc1nc(-c2cccc3ccsc23)c(C(=O)NC(Cc2ccccc2)C(=O)C(N)=O)o1 (stereo not drawn) [Compound 91, N-(4-AMINO-3,4-DIOXO-1-PHENYLBUTAN-2-YL)-4-(BENZO[b]THIOPHEN-7-YL)-2-METHYLOXAZOLE-5-CARBOXAMIDE] | – | –
< 10 µM | < 3 µM | < 3 µM | < 3 µM | 10 to 25 µM | Cc1nc(-c2coc(Cl)c2)c(C(=O)NC(Cc2ccccc2)C(=O)C(N)=O)o1 (stereo not drawn) [Compound 92, N-(4-AMINO-3,4-DIOXO-1-PHENYLBUTAN-2-YL)-4-(5-CHLOROFURAN-3-YL)-2-METHYLOXAZOLE-5-CARBOXAMIDE] | – | –
< 10 µM | < 3 µM | < 3 µM | < 3 µM | < 10 µM | Cc1nc(-c2ccccc2F)c(C(=O)NC(Cc2ccc(Cl)cc2)C(=O)C(N)=O)o1 (stereo not drawn) [Compound 96, N-(4-AMINO-1-(4-CHLOROPHENYL)-3,4-DIOXOBUTAN-2-YL)-4-(2-FLUOROPHENYL)-2-METHYLOXAZOLE-5-CARBOXAMIDE] | – | –
< 10 µM | < 3 µM | < 3 µM | < 3 µM | 10 to 25 µM | Cc1nc(-c2cc(Cl)oc2C)c(C(=O)NC(Cc2ccccc2)C(=O)C(N)=O)o1 (stereo not drawn) [Compound 98, N-(4-AMINO-3,4-DIOXO-1-PHENYLBUTAN-2-YL)-4-(5-CHLORO-2-METHYLFURAN-3-YL)-2-METHYLOXAZOLE-5-CARBOXAMIDE] | – | –
> 25 µM | < 3 µM | < 3 µM | < 3 µM | > 25 µM | Cn1cc(C(=O)NC(Cc2ccccc2)C(=O)C(N)=O)c(-c2cccc3cn(C)nc23)n1 (stereo not drawn) [Compound 99, N-(4-AMINO-3,4-DIOXO-1-PHENYLBUTAN-2-YL)-1-METHYL-3-(2-METHYL-2H-INDAZOL-7-YL)-1H-PYRAZOLE-4-CARBOXAMIDE] | – | –
